# Results: US12616201B2, “Herbicidal compositions comprising isoxaflutole” (BASF SE, priority 2024, dated 2026)
# Experiments:
# Ipomoea triloba = assay: Post-emergence application in field trials, IPOTR; assay type: in vivo; conditions: Table 1.1; IPOTR growth stage 35; 21 DAT; 25 g ai/ha
# Method: (§1) In the examples below, using the method of S. R. Colby (1967) “Calculating synergistic and antagonistic responses of herbicide combinations”, Weeds 15, p. 22ff., the value E, which is expected if the activity of the individual active compounds is only additive, was calculated:
# (§2) [formula] • where • X=percent activity using active herbicide A at an application rate a; • Y=percent activity using active herbicide B (i.e. isoxaflutole) at an application rate b; • E=expected activity (in %) by A+B at application rates a+b.
# (§3) If the value found experimentally is higher than the value E calculated according to Colby, a synergistic effect is present.
# (§4) On field test sites, natural weed infestation or seeded weeds were treated post-emergence of the weeds.
# (§5) In the field trials, the weeds were treated as indicated below.
# (§6) In the following experiments, the herbicidal activity for the individual herbicidal compositions (solo and mixture applications) was assessed at the indicated days after treatment (DAT). The assessments for the damage on undesired weeds caused by the composition was carried out using a scale from 0 to 100%, compared to the untreated control plants. Here, 0 means no damage and 100 means complete destruction of the plants. […]
# Spermacoce latifolia = assay: Post-emergence application in field trials, BOILF; assay type: in vivo; conditions: Table 1.1, BOILF growth stage 40, 21 DAT
# Method: as §1, §2, §3, §4, §5
# (§7) In the following experiments, the herbicidal activity for the individual herbicidal compositions (solo and mixture applications) was assessed at the indicated days after treatment (DAT). The assessments for the damage on undesired weeds caused by the composition was carried out using a scale from 0 to 100%, compared to the untreated control plants. Here, 0 means no damage and 100 means complete destruction of the plants.
# Herbicide A-1 and isoxaflutole (75% WG) were, together with addition of 0.5 v/v % MSO (methylated sed oil) as adjuvant, formulated in water as distribution medium (water volume 200 l/ha) and sprayed with commercial flat fan nozzles.
# Amaranthus retroflexus = assay: Post-emergence application in field trials, AMARE; assay type: in vivo; conditions: Table 3.4; AMARE growth stage 31-49; 42 DAT; 18 g ai/ha
# Method: as §1, §2, §3, §4, §5, §7
# (§8) Herbicide A-1 and isoxaflutole (240 g/l SC, Balance Flexx®) were, together with addition of 0.25 v/v % MSO (methylated sed oil) as adjuvant, formulated in water as distribution medium (water volume 200 l/ha) and sprayed with commercial flat fan nozzles.
# (§9) Herbicide A-1, isoxaflutole (240 g/l SC), saflufenacil (342 g/l) and pyroxasulfone were, together with addition of 0.25 v/v % MSO (methylated sed oil) as adjuvant, formulated in water as distribution medium (water volume 200 l/ha) and sprayed with commercial flat fan nozzles.
# Setaria verticillata = assay: Post-emergence application in field trials, SETVE; assay type: in vivo; conditions: SETVE growth stage 21-23, 12.5 g ai/ha
# Method: as §1, §2, §3, §4, §5, §7
# (§10) Herbicide A-1 and isoxaflutole (240 g/l SC) were, together with addition of 0.25 v/v % MSO (methylated sed oil) as adjuvant, formulated in water as distribution medium (water volume 200 l/ha) and sprayed with commercial flat fan nozzles.
# as §8
# Echinochloa crus-galli = assay: Post-emergence application in field trials, ECHCG; assay type: in vivo
# Method: as §1, §2, §3, §4, §5, §7, §10, §8
# (§11) Herbicide A-1, isoxaflutole (240 g/l SC) and saflufenacil (342 g/l) were, together with addition of 0.25 v/v % MSO (methylated sed oil) as adjuvant, formulated in water as distribution medium (water volume 200 l/ha) and sprayed with commercial flat fan nozzles.
# as §9
# Glycine max = assay: Post-emergence application in field trials, GLXMA; assay type: in vivo; conditions: GLXMA growth stage 13
# Method: as §1, §2, §3, §4, §5, §7, §10
# Euphorbia heterophylla = assay: Post-emergence application in field trials, EPHHL; assay type: in vivo; conditions: Table 1.1; EPHHL growth stage 35; 21 DAT; 50 g ai/ha
# Method: as §1, §2, §3, §4, §5, §6
# Hordeum vulgare = assay: Post-emergence application in field trials, HORVX; assay type: in vivo; conditions: HORVX growth stage 23-29
# Method: as §1, §2, §3, §4, §5, §7, §8
# Amaranthus hybridus = assay: Post-emergence application in field trials, AMACH; assay type: in vivo; conditions: Table 1.1; AMACH growth stage 35; 21 DAT; 25 g ai/ha
# Method: as §1, §2, §3, §4, §5, §6
# Abuthilon theophrasti = assay: Post-emergence application in field trials, ABUTH; assay type: in vivo; conditions: ABUTH growth stage 14-16, 18 g ai/ha
# Method: as §1, §2, §3, §4, §5, §7, §8
# Zea mays = assay: Post-emergence application in field trials, ZEAMX; assay type: in vivo
# Method: as §1, §2, §3, §4, §5, §7, §10, §8, §11, §9
# Datura stramonium = assay: Post-emergence application in field trials, DATST; assay type: in vivo
# Method: as §1, §2, §3, §4, §5, §7, §10, §11
# HORVW = assay: Post-emergence application in field trials, HORVW; assay type: in vivo, Hordeum vulgare; conditions: HORVW height 20-25 cm, 12.5 g ai/ha
# Method: as §1, §2, §3, §4, §5, §7, §9
# Lolium multiflorum = assay: Post-emergence application in field trials, LOLMU; assay type: in vivo; conditions: LOLMU height 20-25 cm, 12.5 g ai/ha
# Method: as §1, §2, §3, §4, §5, §7, §9
# [1] = Table 4.1, ECHCG growth stage 23-30, height 15-20 cm, 7 DAT, 12.5 g ai/ha
# [2] = Table 4.1, ZEAMX growth stage 15-16, height 25-30 cm, 7 DAT, 12.5 g ai/ha
# [3] = Table 4.2, DATST growth stage 14-16, height 5-10 cm, 42 DAT, 12.5 g ai/ha
structure (smiles),measurement,setting,value
"CCOC(=O)COc1ccccc1Oc1nc(-n2c(=O)cc(C(F)(F)F)n(C)c2=O)c(F)cc1Cl [A-1, ethyl 2-[2-[[3-chloro-5-fluoro-6-[3-methyl-2,6-dioxo-4-(trifluoromethyl)pyrimidin-1-yl]-2-pyridyl]oxy]phenoxy]acetate]",% herbicidal activity,Ipomoea triloba,61%
same,% herbicidal activity,Spermacoce latifolia; 25 g ai/ha,81%
same,% herbicidal activity,Spermacoce latifolia; 50 g ai/ha,95%
same,% herbicidal activity,Amaranthus retroflexus,70%
same,% herbicidal activity,"Setaria verticillata; Table 2.1, 7 DAT",60%
same,% herbicidal activity,"Setaria verticillata; Table 3.4, 42 DAT",30%
same,% herbicidal activity,"Echinochloa crus-galli; Table 2.1, ECHCG growth stage 23-30, 7 DAT, 12.5 g ai/ha",30%
same,% herbicidal activity,"Echinochloa crus-galli; Table 2.1, ECHCG growth stage 23-30, 7 DAT, 18 g ai/ha",30%
same,% herbicidal activity,"Echinochloa crus-galli; Table 3.1, ECHCG growth stage 23-30, 7 DAT, 18 g ai/ha",30%
same,% herbicidal activity,"Echinochloa crus-galli; Table 3.2, ECHCG growth stage 23-30, 21 DAT, 12.5 g ai/ha",20%
same,% herbicidal activity,Echinochloa crus-galli; [1],30%
same,% herbicidal activity,"Echinochloa crus-galli; Table 4.1, ECHCG growth stage 23-30, height 15-20 cm, 7 DAT, 18 g ai/ha",30%
same,% herbicidal activity,"Echinochloa crus-galli; Table 5.11, 7 DAT, height 15-20 cm, A-1 12.5 g ai/ha",30%
same,% herbicidal activity,"Echinochloa crus-galli; Table 5.11, 7 DAT, height 15-20 cm, A-1 18 g ai/ha",30%
same,% herbicidal activity,"Glycine max; Table 2.1, 7 DAT, 18 g ai/ha",80%
same,% herbicidal activity,"Glycine max; Table 2.2, 21 DAT, 12.5 g ai/ha",80%
same,% herbicidal activity,"Glycine max; Table 2.2, 21 DAT, 18 g ai/ha",80%
same,% herbicidal activity,"Glycine max; Table 2.3, 21 DAT, 12.5 g ai/ha",75%
same,% herbicidal activity,Euphorbia heterophylla,86%
same,% herbicidal activity,"Hordeum vulgare; Table 3.1, 7 DAT, 12.5 g ai/ha",70%
same,% herbicidal activity,"Hordeum vulgare; Table 3.1, 7 DAT, 18 g ai/ha",80%
same,% herbicidal activity,"Hordeum vulgare; Table 3.2, 21 DAT, 12.5 g ai/ha",90%
same,% herbicidal activity,Amaranthus hybridus,84%
same,% herbicidal activity,"Abuthilon theophrasti; Table 3.1, 7 DAT",90%
same,% herbicidal activity,"Abuthilon theophrasti; Table 3.2, 21 DAT",92%
same,% herbicidal activity,"Abuthilon theophrasti; Table 3.4, 42 DAT",90%
same,% herbicidal activity,"Zea mays; Table 2.1, ZEAMX growth stage 15-16, 7 DAT, 18 g ai/ha",85%
same,% herbicidal activity,"Zea mays; Table 3.2, ZEAMX growth stage 15-16, 21 DAT, 18 g ai/ha",75%
same,% herbicidal activity,"Zea mays; Table 3.3, ZEAMX growth stage 15-16, 28 DAT, 18 g ai/ha",60%
same,% herbicidal activity,Zea mays; [2],40%
same,% herbicidal activity,"Zea mays; Table 4.1, ZEAMX growth stage 15-16, height 25-30 cm, 7 DAT, 18 g ai/ha",50%
same,% herbicidal activity,"Zea mays; Table 5.10, 7 DAT, height 25-30 cm, A-1 12.5 g ai/ha",85%
same,% herbicidal activity,"Zea mays; Table 5.10, 7 DAT, height 25-30 cm, A-1 18 g ai/ha",85%
same,% herbicidal activity,"Zea mays; Table 5.11, 7 DAT, height 25-30 cm, A-1 12.5 g ai/ha",85%
same,% herbicidal activity,"Zea mays; Table 5.11, 7 DAT, height 25-30 cm, A-1 18 g ai/ha",85%
same,% herbicidal activity,"Zea mays; Table 5.12, 7 DAT, height 25-30 cm, A-1 12.5 g ai/ha",85%
same,% herbicidal activity,"Zea mays; Table 5.12, 7 DAT, height 25-30 cm, A-1 18 g ai/ha",85%
same,% herbicidal activity,"Datura stramonium; Table 2.1, DATST growth stage 14-16, 7 DAT, 18 g ai/ha",75%
same,% herbicidal activity,"Datura stramonium; Table 2.3, DATST growth stage 14-16, 21 DAT, 18 g ai/ha",70%
same,% herbicidal activity,Datura stramonium; [3],55%
same,% herbicidal activity,"Datura stramonium; Table 4.2, DATST growth stage 14-16, height 5-10 cm, 42 DAT, 18 g ai/ha",70%
"CC(C)N(C)S(=O)(=O)NC(=O)c1cc(-n2c(=O)cc(C(F)(F)F)n(C)c2=O)c(F)cc1Cl [C-1, saflufenacil]",% herbicidal activity,Echinochloa crus-galli; [1],20%
same,% herbicidal activity,"Echinochloa crus-galli; Table 5.11, 7 DAT, height 15-20 cm, C-1 12.5 g ai/ha",20%
same,% herbicidal activity,"HORVW; Table 5.2, 21 DAT",0%
same,% herbicidal activity,"HORVW; Table 5.3, 28 DAT",0%
same,% herbicidal activity,"HORVW; Table 5.8, 21 DAT",0%
same,% herbicidal activity,"Lolium multiflorum; Table 5.1, 7 DAT",20%
same,% herbicidal activity,"Lolium multiflorum; Table 5.8, 21 DAT",20%
same,% herbicidal activity,Zea mays; [2],0%
same,% herbicidal activity,"Zea mays; Table 5.11, 7 DAT, height 25-30 cm, C-1 12.5 g ai/ha",8%
same,% herbicidal activity,"Zea mays; Table 5.7, ZEAMX height 25-30 cm, 7 DAT, 12.5 g ai/ha",8%
same,% herbicidal activity,"Zea mays; Table 5.8, ZEAMX height 25-30 cm, 21 DAT, 12.5 g ai/ha",2%
same,% herbicidal activity,"Zea mays; Table 5.9, ZEAMX height 25-30 cm, 28 DAT, 12.5 g ai/ha",0%
same,% herbicidal activity,Datura stramonium; [3],40%
